Values of other authors, collected in paper PMC7111419 (European Journal of Medicinal Chemistry, 2019).
Like-named read-outs stand apart in the source and are kept apart here.

Experiments:
[1] = system: βGLU; details: cited from earlier work
[2] = system: E. coli cells; details: 100 μM; cited from earlier work
[3] = system: female Wistar rats; details: i.p. pre or cotreatment, 3 mg/ml, 10 mg/ml or 10 mg/0.5 ml, 6 days; cited from earlier work
[4] = system: human liver-derived βGLU; details: 1 mM; cited from earlier work
[5] = system: βGLU in breast milk; details: 10 μM; cited from earlier work
[6] = system: SENCAR mice; details: cited from earlier work
[7] = system: male albino Wistar rats; details: 7.5 mg/kg body weight/day intragastric, 7 days; cited from earlier work
[8] = system: rat neutrophils; details: read-out: IC50, βGLU release; cited from earlier work
[9] = system: salivary βGLU; details: 16 subjects with aggressive periodontitis; cited from earlier work

## O=C(Cn1c(-c2ccccn2)nc2ccccc21)c1ccc(Cl)cc1 [Compound 4-Cl]
[1]
  IC50: 32.1 µM
[2]
  cytotoxicity to E. coli cells: cytotoxicity

## O=C(O)[C@@H](O)[C@H]1OC(=O)[C@H](O)[C@H]1O [Compound 5, D-saccharic acid-1,4-lactone]
[3]
  severity of CPT-11 induced small-intestine mucosal damage: reduced the severity
[4]
  inhibition of hydrolytic action on quercetin glucuronides: completely inhibited
[5]
  inhibition of βGLU in breast milk: over 90%
[6]
  reduction of DMBA-induced oxidative DNA damage and mutations in codon 61 of Ha-ras gene: up to 78%
[1]; value recurrent in literature
  IC50: ~40 µM

## Cc1ccc(C(C)C)c(O)c1 [Compound 54, thymol]
[7]
  activities of lysosomal enzymes (βGLU, β-galactosidase, cathepsin B and D) in serum and heart: potently inhibited to near-normal

## C[C@@H]1C(=O)O[C@H]2[C@H](O)[C@@]34[C@H]5C[C@@H](C(C)(C)C)[C@]36[C@@H](OC(=O)[C@@H]6O)O[C@@]4(C(=O)O5)[C@@]12O [ginkgolide B]
[8]
  IC50: 6.63 µM

## doxycycline hyclate
[9]
  effect on salivary βGLU activity: inefficient
